From publication PMC13114161 (Antibiotics, 2026)

Key:
P. aeruginosa ATCC 27853 [1] = test: Membrane polarization assay DiOC2(3); format: cell-based, Pseudomonas aeruginosa; settings: Pseudomonas aeruginosa, ATCC27853; positive control; read-out: IC50 (membrane potential, DiOC2(3))
Experimental: RND efflux pumps require an intact proton motive force across the inner membrane to mediate drug efflux. Accordingly, collapse of the membrane potential could indirectly disable efflux activity and result in apparent antibiotic potentiation. To determine whether TXA11114 dissipates the membrane potential of P. aeruginosa, membrane polarization was assessed using the fluorescent probe 3,3′-diethyloxacarbocyanine iodide (DiOC2(3)). DiOC2(3) accumulates in cells with polarized membranes, undergoing a concentration-dependent shift from green to red fluorescence due to dye stacking; membrane depolarization prevents this shift. […] CCCP and azithromycin were included as positive and negative controls, respectively. […] This discrepancy likely reflects a methodological limitation of the DiOC2(3) assay in Gram-negative bacteria. Specifically, EDTA treatment is required to transiently permeabilize the outer membrane to permit DiOC2(3) access to the cytoplasmic membrane (see Methods). While necessary for probe uptake, EDTA can sensitize cells to secondary perturbations and may exaggerate subtle fluorescence changes at supraphysiological compound concentrations.
P. aeruginosa membrane polarization assays were conducted as described previously using strain ATCC 27853. Briefly, mid-exponential phase (OD600 of 0.5) P. aeruginosa was pelleted by centrifugation at 3000× g for 10 min at room temperature. Cells were then resuspended in 1× PBS, treated with 10 mM EDTA for 5 min and then centrifuged at 300× g for 10 min to remove EDTA. EDTA-treated cells were pelleted and resuspended to an OD600 of 1.0 in assay resuspension buffer. A 6 mM DiOC2(3) stock in DMSO was added to cells for a final concentration of 30 µM. DiOC2(3)-loaded cells were then added to a 96-well black bottom microplate for a final volume of 200 µL. […] After 15 min incubation at 37 °C in dark, DiOC2(3) fluorescence was recorded using the SpectraMax iD5 spectrophotometer (Molecular Devices, San Jose, CA, USA) using 450 nm excitation. Red fluorescence intensity was recorded at 670 nm emission.

P. aeruginosa ATCC 27853 [2] = test: Intracellular ATP levels; format: cell-based, Pseudomonas aeruginosa; settings: three hours post-treatment
Experimental: Further, a deviation from normal membrane function can affect the activity of respiratory components and diminish ATP synthesis. Thus, an indirect approach to assess a drug’s membrane effect is by monitoring cellular ATP levels after treatment. To exclude ATP depletion as a TXA11114 MoA, bacterial ATP levels were evaluated three hours post-treatment. […] Azithromycin was used as a negative control.
P. aeruginosa intracellular ATP levels were determined as described previously using an ATP determination kit (Invitrogen, Life Technologies, Carlsbad, CA, USA). Bacterial culture strain ATCC 27853 was grown to the mid-log phase (OD600 = 0.7), washed, and resuspended in the same volume of PBSM (1X PBS, 1mM MgCl2). […] After treatment, the cells were lysed in chloroform which was subsequently removed by boiling at 80 °C. The persistent ATP from cell lysate was measured in a 96-well black flat-bottom plate by measuring the luminescence. Luminescence was converted to concentration from standard curve. […] Error bars represent the standard deviation of triplicates.

P. aeruginosa [3] = test: MIC potentiation of antimicrobial agents by EPIs; format: cell-based, Pseudomonas aeruginosa; settings: for Fold difference of antibiotic MIC + TXA01182 / MIC of antibiotic + TXA01182: TXA01182 at […]; for Fold difference of antibiotic MIC + TXA09155 / MIC of antibiotic + TXA09155: TXA09155 at […]; for Fold difference of antibiotic MIC + TXA11114 / MIC of antibiotic + TXA11114: TXA11114 at […];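 as to Fold difference of antibiotic MIC + TXA01182: TXA01182 tested at 6.25 µg/mL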;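 as to Fold difference of antibiotic MIC + TXA09155: TXA09155 tested at 6.25 µg/mL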; as to Fold difference of antibiotic MIC + TXA11114: TXA11114 at 6.25 µg/mL;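 as to MIC of antibiotic + TXA01182: TXA01182 tested at 6.25 µg/mL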;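 as to MIC of antibiotic + TXA09155: TXA09155 tested at 6.25 µg/mL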; as to MIC of antibiotic + TXA11114: TXA11114 at 6.25 µg/mL
Experimental: In contrast, the activities of gentamicin and imipenem were unchanged in the presence of TXA11114 under the conditions tested. Although gentamicin can be transported by the MexXY efflux system, the absence of potentiation in this assay is not sufficient to draw conclusions regarding MexXY inhibition or overall efflux specificity.
(§1) MIC assays for potentiation of antimicrobial activity against P. aeruginosa were performed as described previously.

[4] = tested on: P. aeruginosa K1119 (∆mexAB-oprM); test: Antibiotic MIC potentiation in efflux mutants; format: cell-based, Pseudomonas aeruginosa
Experimental: (§2) Next, the ability of TXA11114 to inhibit P. aeruginosa mutants overexpressing MexAB-OprM was evaluated. Loss of function mutations in nalB resulting in the overexpression of MexAB-OprM have been identified in P. aeruginosa clinical isolates and are associated with resistance to cephalosporins, fluoroquinolones and aminoglycosides. In theory, an EPI should reverse the antimicrobial susceptibility lost in bacteria-overexpressing efflux pumps. Thus, the TXA11114 EPI activity was studied using antibiotics that display efflux liabilities in this RND efflux pump (Table 5).
as §1

[5] = tested on: P. aeruginosa K1455 (↑mexAB-oprM); test: Antibiotic MIC potentiation in efflux mutants; format: cell-based, Pseudomonas aeruginosa
Experimental: as §2, §1

P. aeruginosa K767 (WT) = test: Antibiotic MIC potentiation in efflux mutants; format: cell-based, Pseudomonas aeruginosa
Experimental: as §2, §1

P. aeruginosa ATCC 27853 [6] = test: MIC and levofloxacin potentiation (broth microdilution); format: cell-based, Pseudomonas aeruginosa; settings: ATCC 27853
Experimental: Once synthesized, the three fluorinated EPI analogs (TXA11114, TXA11164 and TXA12027) were first assayed for their antibacterial activities against P. aeruginosa ATCC 27853. They had MICs of 100, >200 and 100 µg/mL, respectively (Table 1). […] Particularly, the inactivity of TXA11164 was surprising as the pKa values of both the amines are similar to that in TXA11114.
as §1

in vivo = settings: female, CD-1, mouse, iv
Experimental: Thus, the safety and tolerability of TXA11114 was determined to find an optimum dosing capability. The maximum tolerated dose (MTD) of TXA11114 was assessed in female mice (CD-1, 6–8 weeks old) at the University of North Texas Health Science Center (UNTHSC). TXA11114 was administered IV to groups of three female mice. Mice were administered TXA11114 in the range 30–240 mg/kg (IV bolus). […] As doses are tolerated (not resulting in effects such as mortality, convulsions, or other severe morbidity), they are increased. Survival and general observations as to the tolerability of the administered dose started immediately and continued for a period of 48 h after each dose was recorded.

P. aeruginosa ATCC 27853 [7] = test: Neutropenic murine thigh infection model; format: in vivo, CD-1 mice; settings: thigh or lung infection models
Experimental: Female CD-1 mice (6–8 weeks old; 22 ± 2 g) were obtained from Envigo Laboratories, quarantined for at least 3 days, and housed 5 per cage in accordance with the approved IACUC protocol (IACUC-2017-0049). Neutropenia was induced by intraperitoneal (IP) administration of cyclophosphamide (Cytoxan) at 150 mg/kg on day 4 and 100 mg/kg on day 1 prior to infection.
Mice were infected intramuscularly (IM) in the right thigh with 0.1 mL of bacterial suspension containing approximately 1 × 10^5–10^6 CFU/mL. […] At 2 h or 24 h post-infection, mice were euthanized by CO2 asphyxiation, and thighs were aseptically excised and placed in 2 mL sterile phosphate-buffered saline (PBS) on ice. Tissue homogenization was performed using a Polytron PT10-35 (12 mm aggregate, Kinematica, Malters, Switzerland).
Plates were incubated overnight at 37 °C, and colonies were enumerated the following day.

P. aeruginosa [8] = tested on: P. aeruginosa; set-up: method as in PMID 35052908, PMID 35740123; settings: against P. aeruginosa; cited from earlier work

N#CC(C#N)=NNc1cccc(Cl)c1 [CCCP, carbonyl cyanide 3-chlorophenylhydrazone]
IC50 (P. aeruginosa ATCC 27853 [1]): 17 nM | Cellular ATP level (P. aeruginosa ATCC 27853 [2]): significant depletion of ATP

CO/N=C(\C(=O)N[C@@H]1C(=O)N2C(C(=O)[O-])=C(C[N+]3(C)CCCC3)CS[C@H]12)c1csc(N)n1 [Cefepime]
Fold difference of antibiotic MIC + TXA01182 (P. aeruginosa [3]): 2 fold | MIC of antibiotic + TXA01182 (P. aeruginosa [3]): 1 µg/mL | Fold difference of antibiotic MIC + TXA09155 (P. aeruginosa [3]): 4 fold | MIC of antibiotic + TXA09155 (P. aeruginosa [3]): 0.5 µg/mL | Fold difference of antibiotic MIC + TXA11114 (P. aeruginosa [3]): 4 fold | MIC of antibiotic + TXA11114 (P. aeruginosa [3]): 0.5 µg/mL | MIC Ratio of Antibiotics Alone/(Antibiotics + […] TXA11114) [4]: 2 | MIC Ratio of Antibiotics Alone/(Antibiotics + […] TXA11114) [5]: 16 | MIC Ratio of Antibiotics Alone/(Antibiotics + […] TXA11114) (P. aeruginosa K767 (WT)): 8

C[C@@H](O)[C@H]1C(=O)N2C(C(=O)O)=C(SCCN=CN)C[C@H]12 [Imipenem]
Fold difference of antibiotic MIC + TXA01182 (P. aeruginosa [3]): 1 fold | MIC of antibiotic + TXA01182 (P. aeruginosa [3]): 4 µg/mL | Fold difference of antibiotic MIC + TXA09155 (P. aeruginosa [3]): 1 fold | MIC of antibiotic + TXA09155 (P. aeruginosa [3]): 4 µg/mL | Fold difference of antibiotic MIC + TXA11114 (P. aeruginosa [3]): 1 fold | MIC of antibiotic + TXA11114 (P. aeruginosa [3]): 4 µg/mL | Fold difference of antibiotic MIC + TXA11114 (P. aeruginosa [3]; listed as imipenem): unchanged | MIC Ratio of Antibiotics Alone/(Antibiotics + […] TXA11114) [4]: 1 | MIC Ratio of Antibiotics Alone/(Antibiotics + […] TXA11114) [5]: 1 | MIC Ratio of Antibiotics Alone/(Antibiotics + […] TXA11114) (P. aeruginosa K767 (WT)): 1

NCCC[C@@H](N)CNC(=O)c1cc2ccc(-c3ccc(F)cc3)cc2[nH]1 [TXA01182]
Fold MIC reduction [LVX/EPI-LVX] (P. aeruginosa ATCC 27853 [6]; EPI at […]): 8 fold | MIC (P. aeruginosa ATCC 27853 [6]; Pseudomonas aeruginosa, ATCC27853, EPI alone, read-out: EPI MIC): 100 µg/mL | LVX MIC (+EPI) (P. aeruginosa ATCC 27853 [6]; levofloxacin MIC with EPI at […]): 0.125 µg/mL | MTD at 48 h (in vivo): 12.5 mg/kg | Improvement of levofloxacin efficacy in murine thigh or lung infection models (P. aeruginosa ATCC 27853 [7]): neither TXA01182 nor TXA09155 improved levofloxacin efficacy | Lowest concentration enhancing activity of monobactams, fluoroquinolones, sulfonamides and tetracyclines (P. aeruginosa [8]): 6.25 µg/mL
